Test results published in US10898475B2, “Bach1 inhibitors in combination with Nrf2 activators and pharmaceutical compositions thereof” (vTv Therapeutics LLC, priority 2014, dated 2021).

System: HMOX1 in Normal Human Lung Fibroblasts (NHLF)
Experiment: HMOX1 Protein Expression (immunostaining, fold induction or % positive cells over DMSO)
Conditions: for Hill slope of DMF dose response curves in Table 2: % Positive HMOX

Fold Induction of HMOX (Cpd. 0.019 uM, DMF 0 uM): 1.24 fold
Fold Induction of HMOX (Cpd. 0.019 uM, DMF 0.03 uM): 1.17 fold
Fold Induction of HMOX (Cpd. 0.019 uM, DMF 0.1 uM): 1.13 fold
Fold Induction of HMOX (Cpd. 0.019 uM, DMF 0.3 uM): 1.43 fold
Fold Induction of HMOX (Cpd. 0.019 uM, DMF 1 uM): 1.57 fold
Fold Induction of HMOX (Cpd. 0.019 uM, DMF 3 uM): 2.98 fold
Fold Induction of HMOX (Cpd. 0.019 uM, DMF 10 uM): 4.94 fold
Fold Induction of HMOX (Cpd. 0.019 uM, DMF 30 uM): 4.23 fold
Fold Induction of HMOX (Cpd. 0.039 uM, DMF 0 uM): 1.45 fold
Fold Induction of HMOX (Cpd. 0.039 uM, DMF 0.03 uM): 1.07 fold
Fold Induction of HMOX (Cpd. 0.039 uM, DMF 0.1 uM): 1.08 fold
Fold Induction of HMOX (Cpd. 0.039 uM, DMF 0.3 uM): 1.59 fold
Fold Induction of HMOX (Cpd. 0.039 uM, DMF 1 uM): 1.97 fold
Fold Induction of HMOX (Cpd. 0.039 uM, DMF 3 uM): 2.84 fold
Fold Induction of HMOX (Cpd. 0.039 uM, DMF 10 uM): 4.86 fold
Fold Induction of HMOX (Cpd. 0.039 uM, DMF 30 uM): 4.82 fold
Fold Induction of HMOX (Cpd. 0.078 uM, DMF 0 uM): 1.46 fold
Fold Induction of HMOX (Cpd. 0.078 uM, DMF 0.03 uM): 1.12 fold
Fold Induction of HMOX (Cpd. 0.078 uM, DMF 0.1 uM): 1.21 fold
Fold Induction of HMOX (Cpd. 0.078 uM, DMF 0.3 uM): 1.43 fold
Fold Induction of HMOX (Cpd. 0.078 uM, DMF 1 uM): 2.29 fold
Fold Induction of HMOX (Cpd. 0.078 uM, DMF 3 uM): 3.12 fold
Fold Induction of HMOX (Cpd. 0.078 uM, DMF 10 uM): 5.06 fold
Fold Induction of HMOX (Cpd. 0.078 uM, DMF 30 uM): 4.52 fold
Fold Induction of HMOX (Cpd. 0.156 uM, DMF 0 uM): 1.96 fold
Fold Induction of HMOX (Cpd. 0.156 uM, DMF 0.03 uM): 1.46 fold
Fold Induction of HMOX (Cpd. 0.156 uM, DMF 0.1 uM): 1.73 fold
Fold Induction of HMOX (Cpd. 0.156 uM, DMF 0.3 uM): 2.06 fold
Fold Induction of HMOX (Cpd. 0.156 uM, DMF 1 uM): 2.87 fold
Fold Induction of HMOX (Cpd. 0.156 uM, DMF 3 uM): 3.63 fold
Fold Induction of HMOX (Cpd. 0.156 uM, DMF 10 uM): 5.58 fold
Fold Induction of HMOX (Cpd. 0.156 uM, DMF 30 uM): 4.99 fold
Compound: COCCNC(=O)c1cnc2c(c1)nc(Nc1nc3ccc(OC(F)(F)F)cc3s1)n2C [HPP-B, 3-Methyl-2-(6-trifluoromethoxy-benzothiazol-2-ylamino)-3H-imidazo[4,5-b]pyridine-6-carboxylic acid (2-methoxy-ethyl)-amide]
Hill slope of DMF dose response curves in Table 2 (Bach1 Inhibitor Conc. 0.019 uM): 2.14
Hill slope of DMF dose response curves in Table 2 (Bach1 Inhibitor Conc. 0.039 uM): 1.87
Hill slope of DMF dose response curves in Table 2 (Bach1 Inhibitor Conc. 0.078 uM): 1.25
Hill slope of DMF dose response curves in Table 2 (Bach1 Inhibitor Conc. 0.156 uM): 1.12
% Cells Positive HMOX (Cpd. 0.019 uM, DMF 0 uM): 2.31%
% Cells Positive HMOX (Cpd. 0.019 uM, DMF 0.03 uM): 1.80%
% Cells Positive HMOX (Cpd. 0.019 uM, DMF 0.1 uM): 2.55%
% Cells Positive HMOX (Cpd. 0.019 uM, DMF 0.3 uM): 8.27%
% Cells Positive HMOX (Cpd. 0.019 uM, DMF 1 uM): 7.52%
% Cells Positive HMOX (Cpd. 0.019 uM, DMF 3 uM): 54.65%
% Cells Positive HMOX (Cpd. 0.019 uM, DMF 10 uM): 92.63%
% Cells Positive HMOX (Cpd. 0.019 uM, DMF 30 uM): 84.93%
% Cells Positive HMOX (Cpd. 0.039 uM, DMF 0 uM): 5.30%
% Cells Positive HMOX (Cpd. 0.039 uM, DMF 0.03 uM): 1.53%
% Cells Positive HMOX (Cpd. 0.039 uM, DMF 0.1 uM): 2.54%
% Cells Positive HMOX (Cpd. 0.039 uM, DMF 0.3 uM): 13.04%
% Cells Positive HMOX (Cpd. 0.039 uM, DMF 1 uM): 23.13%
% Cells Positive HMOX (Cpd. 0.039 uM, DMF 3 uM): 75.79%
% Cells Positive HMOX (Cpd. 0.039 uM, DMF 10 uM): 91.99%
% Cells Positive HMOX (Cpd. 0.039 uM, DMF 30 uM): 87.54%
% Cells Positive HMOX (Cpd. 0.078 uM, DMF 0 uM): 8.23%
% Cells Positive HMOX (Cpd. 0.078 uM, DMF 0.03 uM): 1.72%
% Cells Positive HMOX (Cpd. 0.078 uM, DMF 0.1 uM): 7.05%
% Cells Positive HMOX (Cpd. 0.078 uM, DMF 0.3 uM): 10.31%
% Cells Positive HMOX (Cpd. 0.078 uM, DMF 1 uM): 29.42%
% Cells Positive HMOX (Cpd. 0.078 uM, DMF 3 uM): 55.22%
% Cells Positive HMOX (Cpd. 0.078 uM, DMF 10 uM): 94.55%
% Cells Positive HMOX (Cpd. 0.078 uM, DMF 30 uM): 86.84%
% Cells Positive HMOX (Cpd. 0.156 uM, DMF 0 uM): 11.32%
% Cells Positive HMOX (Cpd. 0.156 uM, DMF 0.03 uM): 8.51%
% Cells Positive HMOX (Cpd. 0.156 uM, DMF 0.1 uM): 18.49%
% Cells Positive HMOX (Cpd. 0.156 uM, DMF 0.3 uM): 30.11%
% Cells Positive HMOX (Cpd. 0.156 uM, DMF 1 uM): 57.70%
% Cells Positive HMOX (Cpd. 0.156 uM, DMF 3 uM): 79.63%
% Cells Positive HMOX (Cpd. 0.156 uM, DMF 10 uM): 99.72%
% Cells Positive HMOX (Cpd. 0.156 uM, DMF 30 uM): 98.17%
combination effect in terms of the % HMOX positive cells (combination with DMF at concentrations below their maximum effect (Table 2)): additive or greater than additive
change of Hill slope of the DMF dose response curve (FIG. 5) (upon increasing amounts of the Bach1 Inhibitor): reduced
